# Assay results taken from PubChem BioAssay AID1845195 (Molecular Pharmacology Branch, DTP, NCI, 2023).
# Tested on: 156681-154-R-J1 tumor spheroid viability
# Test: Anticancer human tumor 156681-154-R-J1 patient-derived melanoma cell line growth inhibition
# Conditions: spheroids with HUVEC and MSC; for IC50: curve of first compound; for viability, T/C: stronger effect = lower value
# Method in brief: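 Complex tumor spheroids combined malignant cells with endothelial cells and mesenchymal stem cells. DNA-damaging drugs and DNA repair inhibitors were tested alone and in combination, at half-log dilutions down from clinical Cmax (top 10 microM if Cmax unknown), 0.25% DMSO final.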
# [1] = second compound 0.003 µM, first compound 0.0316 µM
# [2] = second compound 0.003 µM, first compound 0.1 µM
# [3] = second compound 0.003 µM, first compound 0.316 µM
# [4] = second compound 0.003 µM, first compound 1 µM
# [5] = second compound 0.003 µM, first compound 3.16 µM
# [6] = second compound 0.003 µM, first compound 10 µM
# [7] = second compound 0.00949 µM, first compound 0.0316 µM
# [8] = second compound 0.00949 µM, first compound 0.1 µM
# [9] = second compound 0.00949 µM, first compound 0.316 µM
# [10] = second compound 0.00949 µM, first compound 1 µM
# [11] = second compound 0.00949 µM, first compound 3.16 µM
# [12] = second compound 0.00949 µM, first compound 10 µM
# [13] = second compound 0.03 µM, first compound 0.0316 µM
# [14] = second compound 0.03 µM, first compound 0.1 µM
# [15] = second compound 0.03 µM, first compound 0.316 µM
# [16] = second compound 0.03 µM, first compound 1 µM
# [17] = second compound 0.03 µM, first compound 3.16 µM
# [18] = second compound 0.03 µM, first compound 10 µM
# [19] = second compound 0.0949 µM, first compound 0.0316 µM
# [20] = second compound 0.0949 µM, first compound 0.1 µM
# [21] = second compound 0.0949 µM, first compound 0.316 µM
# [22] = second compound 0.0949 µM, first compound 1 µM
# [23] = second compound 0.0949 µM, first compound 3.16 µM
# [24] = second compound 0.0949 µM, first compound 10 µM
# [25] = second compound 0.3 µM, first compound 0.0316 µM
# [26] = second compound 0.3 µM, first compound 0.1 µM
# [27] = second compound 0.3 µM, first compound 0.316 µM
# [28] = second compound 0.3 µM, first compound 1 µM
# [29] = second compound 0.3 µM, first compound 3.16 µM
# [30] = second compound 0.3 µM, first compound 10 µM
# 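Further: spheroids exposed to compounds for 7 days before readout.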
# 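Wherever viability, T/C is given: percent of vehicle control viability where 100% = DMSO-treated spheroids.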
SMILES,IC50 (second compound 0.003 µM) [µM],IC50 (second compound 0.00949 µM) [µM],IC50 (second compound 0.03 µM) [µM],IC50 (second compound 0.0949 µM) [µM],IC50 (second compound 0.3 µM) [µM],"viability, T/C [1] [%]","viability, T/C [2] [%]","viability, T/C [3] [%]","viability, T/C [4] [%]","viability, T/C [5] [%]","viability, T/C [6] [%]","viability, T/C [7] [%]","viability, T/C [8] [%]","viability, T/C [9] [%]","viability, T/C [10] [%]","viability, T/C [11] [%]","viability, T/C [12] [%]","viability, T/C [13] [%]","viability, T/C [14] [%]","viability, T/C [15] [%]",further results
CC1COCCN1c1cc(-c2ccnn2C)c2ccnc(-c3ccn[nH]3)c2n1 (stereo not given) + CC[C@@]1(O)C(=O)OCc2c1cc1n(c2=O)Cc2cc3c(CN(C)C)c(O)ccc3nc2-1,0.175,0.194,0.0524,< 0.0316,< 0.0316,83.5,62.5,36.7,27.1,26.7,23.9,60.7,66.5,39.9,31.9,29.6,23.6,55.2,44.8,32.8,"viability, T/C [16]: 28.5%; viability, T/C [17]: 27.4%; viability, T/C [18]: 23.5%; viability, T/C [19]: 26.3%; viability, T/C [20]: 26.6%; viability, T/C [21]: 28.3%; viability, T/C [22]: 27.5%; viability, T/C [23]: 26.7%; viability, T/C [24]: 21.1%; viability, T/C [25]: 35.2%; viability, T/C [26]: 34.3%; viability, T/C [27]: 39.6%; viability, T/C [28]: 37.2%; viability, T/C [29]: 29.6%; viability, T/C [30]: 27.6%"
COc1cc(C)[nH]c(=O)c1CN1CCc2c(Cl)cc(C(OC)C3COC3)c(Cl)c2C1=O (stereo not given) + CC[C@@]1(O)C(=O)OCc2c1cc1n(c2=O)Cc2cc3c(CN(C)C)c(O)ccc3nc2-1,> 10,> 10,> 10,< 0.0316,< 0.0316,106,93.3,120,99,95.3,96.8,105,83.2,91.6,88.7,84.7,92.3,80.4,71.1,77,"viability, T/C [16]: 86.3%; viability, T/C [17]: 77.7%; viability, T/C [18]: 84.9%; viability, T/C [19]: 28.8%; viability, T/C [20]: 31.6%; viability, T/C [21]: 34.6%; viability, T/C [22]: 32.3%; viability, T/C [23]: 32.5%; viability, T/C [24]: 49.5%; viability, T/C [25]: 38.6%; viability, T/C [26]: 42.4%; viability, T/C [27]: 38.1%; viability, T/C [28]: 39.4%; viability, T/C [29]: 40.1%; viability, T/C [30]: 38.2%"
[2H]c1nc(C)nc([2H])c1-c1cc(NC[C@@H](C)c2cccc3c(C(=O)NC)ccnc23)ncn1 + CC[C@@]1(O)C(=O)OCc2c1cc1n(c2=O)Cc2cc3c(CN(C)C)c(O)ccc3nc2-1,> 10,> 10,> 10,< 0.0316,< 0.0316,100,132,112,92.2,92.3,78,97.6,81.4,103,95.8,97.2,78.2,69.3,72.3,66.6,"viability, T/C [16]: 65.6%; viability, T/C [17]: 64.7%; viability, T/C [18]: 76%; viability, T/C [19]: 28.3%; viability, T/C [20]: 26.2%; viability, T/C [21]: 27.4%; viability, T/C [22]: 25%; viability, T/C [23]: 32.4%; viability, T/C [24]: 29.9%; viability, T/C [25]: 37.1%; viability, T/C [26]: 32.6%; viability, T/C [27]: 31.5%; viability, T/C [28]: 40.6%; viability, T/C [29]: 33.2%; viability, T/C [30]: 36.4%"
